Measurements taken from patent US20220105058A1, “USE OF 3-O-SULFAMATE-16,16-DIMETHYL-D-HOMOEQUILENIN TO TREAT ONCOLOGICAL DISEASES” (priority 2018, published 2022).
Several values for one entry are separate records, joined by “and”; a condition that tells them apart may be missing. Equal entries are not always repeated. Entries after “also recorded” stand apart in the source; their conditions may differ. Where two headings read alike, the source gives them in different places. Marks after values point to notes of the source that are not given here.

Experiments:
[1] = system: uterine body without horns; assay: uterine body weight (hormonal effect) on Day 28; type: in vivo, FVB mice transgenic for HER-2/neu; conditions: for Uterine body weight: Day 28; for uterotropic activity / hormonal effect: mouse, in vivo
Method: To estimate the hormonal effect of the medicament, the weight of uterine body without horns was measured on Day 28 of the observation period (Table 9).

[2] = system: Breast tumors (BT) in female FBV/N mice transgenic for HER-2/neu; assay: antitumor activity in mice with HER-2/neu breast tumors; type: in vivo, FVB mice transgenic for HER-2/neu; conditions: for average total volume of tumors, % changes from baseline / average volume of tumors, % changes from baseline: 28 days; for Total number of new tumors: end of experiment; for frequency of tumor stabilizations: end of observation; for antitumor efficacy compared with Tamoxifen: mouse, in vivo
From the text: The age of animals at the beginning of the study was 21-41 weeks and weight was 25-30 g.
The control groups were given the olive oil (placebo).
TGI=(Vctrl−Vexp)/Vctrl×100(%),

[3] = system: subcutaneous xenografts of human TNBC-Kad breast cancer
Method: A comparative study of the medicaments in vivo was performed in female Balb/c nude mice with subcutaneously (s.c.) transplanted tumor cells. The experiment lasted for 29 days after the medicament administration for the first time (the administration of the medicaments was started on Day 5 after the tumor strain transplantation).
The medicament and the reference drug were administered intragastrically multiple times at doses of 30 mg/kg and 10 mg/kg daily for 21 days.
The placebo group was given 1% starch solution intragastrically in equivalent volumes and in the same regime. Tumor nodes were measured 2 times per week. […] Once the treatment was completed, the last tumor measurement was carried out, and animals were weighed and euthanized.
The animals were weighed on the first day of the experiment, and then 2 times per week throughout the experiment according to the research protocol.
A tumor node was measured after tumor transplantation 2 times per week throughout the experiment. The tumor node volume was determined by the formula:
V=π/6*L*W*H, where L, W, H are the linear size dimensions of the tumor.
Determination of Antitumor Activity
Tumor growth inhibition index (TGI) was used as a criterion for the study of the medicament efficacy and calculated by the formula as follows:
TGI (%)=|Vctrl−Vexp|/Vctrl*100
where Vctrl and Vexp are the average tumor volume (mm^3) in the control and in the experimental groups, respectively.
After the course of the treatment, the animals were euthanized by the cervical dislocation of cervical vertebrae.
The statistical data processing was conducted using SPSS 21 package (license No. 20130626-3). Descriptive statistics in the study includes the following: arithmetic average, standard deviation (SD), standard mean error (SE), median, quartiles, interquartile range. To compare quantitative characteristics in the groups, the Mann-Whitney-Wilcoxon test was used without corrections for multiple comparisons. The results were considered statistically significant at p<0.05.

[4] = system: MCF-7 human cells culture (breast adenocarcinoma); assay: proliferation of passaged MCF-7 cell culture; type: cell-based
Method: The study analysis was carried out on an passaged MCF-7 human cells culture culture (breast adenocarcinoma). Normal human dermal fibroblasts (HDF) of early passages were used as a negative control. The cells were cultivated in Carrel vials in DMEM/F12 medium (Biolot) with 1.0% of antibiotic-free fetal bovine embryonic serum (Biolot) added in the 5% CO2 atmosphere, at 37° C.
The cells were seeded on Carrel vials at 50×10^4 cells per flask. To study the proliferative activity of the cells under conditions of sulfatase inhibition, 24 hours after seeding the culture medium […], and then these tumor cell lines were incubated for various periods of time (24 to 72 hrs). The inhibitor was dissolved in DMSO. […] To exclude the cytotoxic effect of DMSO, a control sample comprising DMSO without sulfatase inhibitor was prepared. To exclude nonspecific detrimental effects of the compounds, normal human skin fibroblasts were used. Then the cells were detached with the versene-trypsin solution (Biolot), plated onto Carrel vials containing a fresh complete culture medium. The cells were counted when untreated control cells reached the maximum cell density per unit of surface area of a culture flask (monolayer), and their number was set as 100%. The proliferative activity of all of the studied cell cultures exposed to sulfatase inhibitors was determined in triplicate.

SMILES: CC1(C)CC(=O)[C@@]2(C)CCc3c(ccc4cc(OS(N)(=O)=O)ccc34)[C@@H]2C1 [medicament, 3-O-sulfamate-16,16-dimethyl-D-homoequilenin]
- Uterine body weight ([1]; medicament 20 mg/kg, All mice): 27 ± 5 mg
- Uterine body weight ([1]; medicament 20 mg/kg, diestrus (D-7)): 19 ± 3 mg
- Uterine body weight ([1]; medicament 20 mg/kg, estrus (E-3)): 45 ± 7 mg
- Uterine body weight ([1]; medicament 100 mg/kg, All mice): 26 ± 6 mg
- Uterine body weight ([1]; medicament 100 mg/kg, diestrus (D-8)): 19 ± 4 mg
- Uterine body weight ([1]; medicament 100 mg/kg, estrus (E-2)): 50 ± 10 mg
- uterotropic activity / hormonal effect [1]: No significant differences; also recorded: no uterotropic activity
- uterotropic activity / hormonal effect ([1]; listed as compound): absence of uterotropic activity
- Average volume of new tumors at the end of observation period (M) ([2]; medicament 20 mg/kg): 0.15 cm^3
- average total volume of tumors, % changes from baseline ([2]; medicament 20 mg/kg): 106%
- average volume of tumors, % changes from baseline ([2]; medicament 20 mg/kg): 103%
- TGI (average total tumor volume) ([2]; medicament 20 mg/kg, Day 0): 25%
- TGI (average tumor volume) ([2]; medicament 20 mg/kg, Day 0): 8%
- average total volume of tumors in mice (M) ([2]; medicament 20 mg/kg, Day 0): 1.69 cm^3
- average volume of tumors (M) ([2]; medicament 20 mg/kg, Day 0): 0.35 cm^3
- relative change of the average total volume to that of Day − 1 (M) ([2]; medicament 20 mg/kg, Day 0): 0%
- TGI (average total tumor volume) ([2]; medicament 20 mg/kg, Day 7): 36%
- TGI (average tumor volume) ([2]; medicament 20 mg/kg, Day 7): 22%
- average total volume of tumors in mice (M) ([2]; medicament 20 mg/kg, Day 7): 1.93 cm^3
- average volume of tumors (M) ([2]; medicament 20 mg/kg, Day 7): 0.39 cm^3
- relative change of the average total volume to that of Day − 1 (M) ([2]; medicament 20 mg/kg, Day 7): 19%
- TGI (average total tumor volume) ([2]; medicament 20 mg/kg, Day 14): 36%
- TGI (average tumor volume) ([2]; medicament 20 mg/kg, Day 14): 21%
- average total volume of tumors in mice (M) ([2]; medicament 20 mg/kg, Day 14): 2.67* cm^3
- average volume of tumors (M) ([2]; medicament 20 mg/kg, Day 14): 0.55 cm^3
- relative change of the average total volume to that of Day − 1 (M) ([2]; medicament 20 mg/kg, Day 14): 64^a %
- TGI (average total tumor volume) ([2]; medicament 20 mg/kg, Day 21): 38%
- TGI (average tumor volume) ([2]; medicament 20 mg/kg, Day 21): 25%
- average total volume of tumors in mice (M) ([2]; medicament 20 mg/kg, Day 21): 3.15** cm^3
- average volume of tumors (M) ([2]; medicament 20 mg/kg, Day 21): 0.64 cm^3
- relative change of the average total volume to that of Day − 1 (M) ([2]; medicament 20 mg/kg, Day 21): 91^aa %
- TGI (average total tumor volume) ([2]; medicament 20 mg/kg, Day 28): 40%
- TGI (average tumor volume) ([2]; medicament 20 mg/kg, Day 28): 27%
- average total volume of tumors in mice (M) ([2]; medicament 20 mg/kg, Day 28): 3.48**^a cm^3
- average volume of tumors (M) ([2]; medicament 20 mg/kg, Day 28): 0.71* cm^3
- relative change of the average total volume to that of Day − 1 (M) ([2]; medicament 20 mg/kg, Day 28): 107*^aa %
- Total number of new tumors ([2]; medicament 20 mg/kg): 23
- frequency of tumor stabilizations ([2]; medicament 20 mg/kg): 22%
- Average volume of new tumors at the end of observation period (M) ([2]; medicament 100 mg/kg): 0.12* cm^3
- average total volume of tumors, % changes from baseline ([2]; medicament 100 mg/kg): 59%
- average volume of tumors, % changes from baseline ([2]; medicament 100 mg/kg): 60%
- TGI (average total tumor volume) ([2]; medicament 100 mg/kg, Day 0): 25%
- TGI (average tumor volume) ([2]; medicament 100 mg/kg, Day 0): 8%
- average total volume of tumors in mice (M) ([2]; medicament 100 mg/kg, Day 0): 1.70 cm^3
- average volume of tumors (M) ([2]; medicament 100 mg/kg, Day 0): 0.35 cm^3
- relative change of the average total volume to that of Day − 1 (M) ([2]; medicament 100 mg/kg, Day 0): 0%
- TGI (average total tumor volume) ([2]; medicament 100 mg/kg, Day 7): 41%
- TGI (average tumor volume) ([2]; medicament 100 mg/kg, Day 7): 26%
- average total volume of tumors in mice (M) ([2]; medicament 100 mg/kg, Day 7): 1.79 cm^3
- average volume of tumors (M) ([2]; medicament 100 mg/kg, Day 7): 0.37 cm^3
- relative change of the average total volume to that of Day − 1 (M) ([2]; medicament 100 mg/kg, Day 7): 1^a %
- TGI (average total tumor volume) ([2]; medicament 100 mg/kg, Day 14): 45%
- TGI (average tumor volume) ([2]; medicament 100 mg/kg, Day 14): 31%
- average total volume of tumors in mice (M) ([2]; medicament 100 mg/kg, Day 14): 2.30* cm^3
- average volume of tumors (M) ([2]; medicament 100 mg/kg, Day 14): 0.48 cm^3
- relative change of the average total volume to that of Day − 1 (M) ([2]; medicament 100 mg/kg, Day 14): 38^a %
- TGI (average total tumor volume) ([2]; medicament 100 mg/kg, Day 21): 46%
- TGI (average tumor volume) ([2]; medicament 100 mg/kg, Day 21): 33%
- average total volume of tumors in mice (M) ([2]; medicament 100 mg/kg, Day 21): 2.75** cm^3
- average volume of tumors (M) ([2]; medicament 100 mg/kg, Day 21): 0.57* cm^3
- relative change of the average total volume to that of Day − 1 (M) ([2]; medicament 100 mg/kg, Day 21): 75^aa %
- TGI (average total tumor volume) ([2]; medicament 100 mg/kg, Day 28): 53%
- TGI (average tumor volume) ([2]; medicament 100 mg/kg, Day 28): 42%
- average total volume of tumors in mice (M) ([2]; medicament 100 mg/kg, Day 28): 2.71**^a cm^3
- average volume of tumors (M) ([2]; medicament 100 mg/kg, Day 28): 0.56**^a cm^3
- relative change of the average total volume to that of Day − 1 (M) ([2]; medicament 100 mg/kg, Day 28): 69**^aa %
- Total number of new tumors ([2]; medicament 100 mg/kg): 15
- frequency of tumor stabilizations ([2]; medicament 100 mg/kg): 27%
- frequency of tumor stabilizations ([2]; medicament 100 mg/kg, listed as compound): 27%
- antitumor efficacy compared with Tamoxifen [2]: statistically significantly more effective
- antitumor efficacy compared with Tamoxifen ([2]; listed as agent): inhibits the proliferation of tumours more effectively
- number of dead mice before the end of the observation period ([3]; medicament 10 mg/kg): 10 out of 10
- average tumor volume (M ± m) ([3]; medicament 10 mg/kg, Day 3): 5.65 ± 1.64 mm^3
- TNBC_Kad growth inhibition, TGI ([3]; medicament 10 mg/kg, Day 7): 66.1%
- average tumor volume (M ± m) ([3]; medicament 10 mg/kg, Day 7): 27.0±5.1 mm^3 and 26.98 ± 5.12 mm^3
- TNBC_Kad growth inhibition, TGI ([3]; medicament 10 mg/kg, Day 10): 78.7%
- average tumor volume (M ± m) ([3]; medicament 10 mg/kg, Day 10): 21.6±4.9 mm^3 and 21.59 ± 4.88 mm^3
- TNBC_Kad growth inhibition, TGI ([3]; medicament 10 mg/kg, Day 14): 83.1%
- average tumor volume (M ± m) ([3]; medicament 10 mg/kg, Day 14): 27.6±2.6 mm^3 and 27.59 ± 2.57 mm^3
- TNBC_Kad growth inhibition, TGI ([3]; medicament 10 mg/kg, Day 17): 76.1%
- average tumor volume (M ± m) ([3]; medicament 10 mg/kg, Day 17): 46.3±5.3 mm^3 and 46.25 ± 5.31 mm^3
- average tumor volume (M ± m) ([3]; medicament i.g. 10 mg/kg, Day 0 of treatment): 1.6±0.4 mm^3 and 1.57 ± 0.35 mm^3
- efficacy compared with tamoxifen and letrozole ([3]; xenograft human tumor of triple negative breast cancer): more effective than tamoxifen and aromatase inhibitor letrozole
- proliferation of tumor MCF-7 cells [4]: completely inhibits proliferation
- proliferation of tumor MCF-7 cells ([4]; concentration of 20 μg/ml): completely blocks the proliferation
